Experimental findings from patent publication US10851069B2, “Compositions of crystallized hydrophobic compounds and methods of making and using same” (Massachusetts Institute of Technology, priority 2016, dated 2020) are described below.

In data set [1] the test system is C57BL/6 mice. Description: Crystalline drug-loaded alginate capsules, long-term IP/SC implantation, prevention of fibrosis. In kind it is in vivo. The note with it: crystalline form in alginate capsules, retrieved after 1, 3 and 6 months from IP space. The source says:
Lead compounds identified by screening the amorphous formulations (e.g., compounds of Formulae I-X, particularly LY215799, Dx, Curcumin, GW2580, QNZ and Ki20227) were studied for long-term release and prevention of fibrosis following encapsulation in crystalline form and implantation into the intraperitoneal (IP) space of C57BL/6 mice for long term testing. […] Drug extraction analysis by HPLC also determined that notable percentages (e.g., more than 50%) of the loaded drug remained within the retrieved capsules (FIG. 22D), particularly in the subcutaneous implanted samples. […] In contrast, capsules retrieved from the IP space 6 months post-implantation were identified with only 2-40% of the loaded drug remaining within the retrieved capsules.
All animal protocols were approved by the MIT Committee on Animal Care, and all surgical procedures and post-operative care was supervised by MIT Division of Comparative Medicine veterinary staff. Immune-competent male non-diabetic or STZ-induced diabetic C57BL/6 mice (Jackson Laboratory, Bar Harbor, Me.) were anesthetized with 3% isoflurane in oxygen and had their abdomens shaved and sterilized using betadine and isopropanol. Preoperatively, all mice also received a 0.05 mg/kg dose of buprenorphine subcutaneously as a pre-surgical analgesic, along with 0.3 mL of 0.9% saline subcutaneously to prevent dehydration. A […] incision was made along the midline of the abdomen and the peritoneal lining was exposed using blunt dissection. The peritoneal wall was then grasped with forceps and a 0.5-1 mm incision was made along the linea alba. A desired volume of spheres (all materials without islets, as well as SLG20 spheres encapsulating rat islets) were then loaded into a sterile pipette and implanted into the peritoneal cavity through the incision. The incision was then closed using 5-0 taper-tipped polydioxanone (PDS II) absorbable sutures. The skin was then closed over the incision using a wound clip and tissue glue.
At desired time points post-implantation or transplantation (with encapsulated islets), as specified in figures, mice were euthanized by CO2 administration, followed by cervical dislocation. In certain instances, 5 ml of ice cold PBS was first injected in order perform an intraperitoneal lavage to rinse out and collect free-floating intraperitoneal immune cells. An incision was then made using the forceps and scissors along the abdomen skin and peritoneal wall, and intraperitoneal lavage volumes were pipetted out into fresh 15 ml falcon tubes (each prepared with 5 ml of RPMI cell culture media). Next, a wash bottle tip was inserted into the abdominal cavity. KREBS buffer was then used to wash out all material spheres from the abdomen and into petri dishes for collection. After ensuring all the spheres were washed out or manually retrieved (if fibrosed directly to intraperitoneal tissues), they were transferred into 50 mL conical tubes for downstream processing and imaging. After intraperitoneal lavage and sphere retrieval, remaining fibrosed intraperitoneal tissues were also excised for downstream FACS and expression analyses.
For phase contrast imaging, retrieved materials were gently washed using Krebs buffer and transferred into 35 mm petri dishes for phase contrast microscopy using an Evos X1 microscope (Advanced Microscopy Group).
Immunofluorescence imaging was used to determine immune populations attached to spheres. […]

Data set [2] concerns C57BL/6 mice. The data set can be described thus: Anti-fibrotic screening of amorphous drug formulations in 500 μm alginate capsules, 2-week intraperitoneal implantation. Type of data set: in vivo. As to conditions: conclusion; alginate hydrogel, ceramic, glass, PDMS and polystyrene beads. The source says: For screening of anti-fibrotic drug activity, amorphous drug formulations were encapsulated inside 500 μm alginate capsules. Broad-spectrum anti-inflammatory agents curcumin, dexamethasone, and rapamycin have been used for preventing fibrosis of various biomaterials, such as polymer PLGA and hydrogel alginate. A panel of lead drug candidates (e.g., compounds of Formulae I-X) including the traditional broad-spectrum anti-inflammatories as well as agents targeted to essential macrophage biology pathways (e.g., TNFα, NFκB, p110δ/PI3K, TGFβ, and CSF1R) were selected. […] SLG20 alginate hydrogel spheres with these lead drug candidates were prepared as amorphous formulations to investigate the effect of macrophage immunomodulation on foreign body response. Drugs were encapsulated in amorphous form prepared by first dissolving in an organic solvent (e.g., vehicle in FIGS. 7, 9) then by mixing with alginate aqueous solution. Efficacy in preventing fibrosis was assessed in C57BL/6 mice at 2-weeks post implantation into the intraperitoneal (IP) cavity. Drug-containing spheres (500 μl/animal) were then implanted into the intraperitoneal space of C57BL/6 mice for 14 days. After this period, spheres were harvested and studied for cellular deposition and fibrosis.
All animal protocols were approved by the MIT Committee on Animal Care, and all surgical procedures and post-operative care was supervised by MIT Division of Comparative Medicine veterinary staff. Immune-competent male non-diabetic or STZ-induced diabetic C57BL/6 mice (Jackson Laboratory, Bar Harbor, Me.) were anesthetized with 3% isoflurane in oxygen and had their abdomens shaved and sterilized using betadine and isopropanol. Preoperatively, all mice also received a 0.05 mg/kg dose of buprenorphine subcutaneously as a pre-surgical analgesic, along with 0.3 mL of 0.9% saline subcutaneously to prevent dehydration. A […] incision was made along the midline of the abdomen and the peritoneal lining was exposed using blunt dissection. […]

Data set [3] has as its system inflammatory macrophage markers Sphk1, TNFα, Arg1, IL1. The data set can be described thus: NanoString multiplexed gene expression analysis of retrieved capsules. Type of data set: in vivo, C57BL/6 mice. The note with it: amorphous drug-loaded capsules, 2 weeks IP; CSF1R-targeting agents compared. The method, then: RNAs for mock-implanted (mock) controls, or for various drug-loaded 0.5 mm diameter alginate sphere-bearing mice (n=4/group) were isolated from tissue samples taken at various time points after implantation, as described. Respective RNAs were quantified, diluted to the appropriate concentration (100 ng/μl), and then 500 ng of each sample was processed according to NanoString manufacturer protocols for expression analysis via our customized multiplexed gene mouse macrophage subtyping panel. RNA levels (absolute copy numbers) were obtained following nCounter (NanoString Technologies Inc., Seattle, Wash.) quantification, and group samples were analyzed using nSolver analysis software (NanoString Technologies Inc., Seattle, Wash.).

Data set [4] is described as follows: In vitro drug release from alginate capsules loaded with crystalline or amorphous formulations. In kind it is physicochemical. The method, then: Release study was carried out in 3 different media, a normal saline-Isopropyl alcohol (10%) mixture, a phosphate buffer (pH 7.4), or for accelerated condition with phosphate buffered saline (pH 7.4) either with 0.1% w/v or 03% w/v SDS. Release study at NS+10% IPA was carried out in 2 ml medium at 37° C. Sampling was carried out by replacement of 1.5 ml of release medium by total replacement of release medium with fresh medium. […] For release in accelerated condition (PBS+SDS), the same time points were followed while 20 μl of drug loaded capsules were incubated in 2 ml release medium to achieve sink conditions. Drug concentration in samples was measured by reverse phase HPLC on C-18 column with a mobile phase or using UV calibrated system. An isocratic mode was set at a flow rate of 0.5-2 ml/min and a different wave-length of nm and 20-50 μl of samples was injected into an HPLC system (Waters, LC-Module-I) or UV analyzed. Calibration curves were prepared in concentration range of 0.05-10 μg/ml. Using prepared calibration curves, drugs concentration in different release samples were calculated.

On to `Nc1ccc2ncnc(NCCc3ccc(Oc4ccccc4)cc3)c2c1` [QNZ, N4-(4-phenoxyphenethyl)quinazoline-4,6-diamine], for which the “fibrosis by phase contrast imaging and confocal microscopy” value in the data set on C57BL/6 mice [1] is on record as “fibrosis free”.

In the case of `Cc1ccc(Nc2c(C(N)=O)cnc3cc(-c4ccc(S(C)(=O)=O)cc4)ccc23)cc1C` [cFMS receptor inhibitor III, 4-(3,4-Dimethylanilino)-7-(4-(methylsulfonyl)phenyl)quinoline-3-carboxamide], the “efficacy in inhibiting fibrosis of implanted biomaterial” value in the data set with C57BL/6 mice [2] is reported as “demonstrated efficacy in inhibiting fibrosis”. The gene expression responses entry in data set [3] is listed as “almost identical gene expression responses”.

For the molecule `Cc1cccc(-c2nn3c(c2-c2ccnc4ccc(C(N)=O)cc24)CCC3)n1` [LY215799, 4-(2-(6-methylpyridin-2-yl)-5,6-dihydro-4H-pyrrolo[1,2-b]pyrazol-3-yl)quinoline-6-carboxamide], the “fibrosis by phase contrast imaging and confocal microscopy” value with C57BL/6 mice [1] was “fibrosis free”.

Consider `COc1cc(Oc2ccnc3cc(OC)c(OC)cc23)ccc1NC(=O)NC(C)c1nccs1` (centres unmarked) [Ki20227, N-[4-[(6,7-Dimethoxy-4-quinolinyl)oxy]-2-methoxyphenyl]-N′-[1-(2-thiazolyl)ethyl]urea], for which the “efficacy in inhibiting fibrosis of implanted biomaterial” value in the data set on C57BL/6 mice [2] is given as “demonstrated efficacy in inhibiting fibrosis”. Also, the “fibrosis by phase contrast imaging and confocal microscopy” value in the data set on C57BL/6 mice [1] was “fibrosis free”.

For `COc1cc(/C=C/C(=O)CC(=O)/C=C/c2ccc(O)c(OC)c2)ccc1O` [Curcumin, (1E,6E)-1,7-bis (4-hydroxy-3-methoxyphenyl)-1,6-heptadiene-3,5-dione], the drug release profile entry was “quicker drug release” in data set [4] (amorphous curcumin encapsulated in alginate, in vitro up to 2 months); “releases more slowly initially, but can be maintained for much longer periods of time” in data set [4] (crystalline curcumin encapsulated in alginate, in vitro up to 2 months); “both quick and extended release” in data set [4] (mixed crystalline:amorphous 3:1 curcumin in alginate). The “duration of long-term release (slow surface erosion)” value in data set [4] (crystalline curcumin loaded into alginate spheres) is listed as “at least 2 months”. Also, the “fibrosis by phase contrast imaging and confocal microscopy” value in the data set with C57BL/6 mice [1] is “fibrosis free”.
